Laboratory results from US12691084B2, “Pharmaceutical composition for preventing or treating bone diseases” (INDUSTRY FOUNDATION OF CHONNAM NATIONAL UNIVERSITY, priority 2019, dated 2026).

What was measured:
[1] = tested on: mouse bone marrow cells; experiment: Bone resorption assay on calcium phosphate coated plate; format: cell-based; details: 6 days; for bone resorption ability: compared to Ctrl
Protocol: Bone resorption ability was confirmed using a bone resorption assay kit (Cosmo Rio, CSR-BRA). 2.5×10^4 mouse bone marrow cells per well were put into a 48-well plate coated with calcium phosphate, followed by treating the cells with PMSA to perform differentiation for 6 days. After 6 days, a fluorescence absorbance was measured with the culture medium to confirm the bone absorption ability. Further, decomposition degree of calcium phosphate was photographed a microscope to confirm the bone resorption ability. […] In FIG. 4, BMMs refer to monocytes that are not differentiated osteoclasts.
Further, the bone resorption ability was confirmed using a bone resorption assay kit (Cosmo Bio, CSR-BRA). 2.5×10^4 mouse bone marrow cells per well were put into a 48-well plate coated with calcium phosphate, and were differentiated for 6 days while being treated with PSTP-3,5-Me. After 6 days, the fluorescence absorbance was measured with the culture medium to confirm the bone absorption ability.

[2] = molecular target: CYP3A4 (Homo sapiens, UniProt P08684); experiment: CYP450 drug metabolism inhibition, 3A4; format: in vitro ADME; details: criterion remaining activity >50%
Protocol: (§1) In order to analyze the drug metabolism of PMSA compound, ADME evaluation was requested to the Daegu-Gyeongbuk Advanced Medical industry Promotion Foundation (DGMIF). Metabolic stability of drugs using liver microsomes (microsomal stability), drug metabolism inhibitory ability by five CYP450 enzymes, plasma metabolism (plasma stability), plasma protein binding, and intestinal permeability of drugs (PAMPA, parallel artificial membrane permeability assay) were analyzed. […] Further, it was confirmed that the permeability resistance was excellent (see Table 3 below). On the other hand, for one of PMSA derivatives, that is, 2-(N-(3,5-dimethylphenyl)methylsulfinamido)-N-(2 (phenylthio)phenyl)propanamide (#25-D5), intestinal permeability of the drug (PAMPA) was not measured.

[3] = molecular target: CYP2C9 (Homo sapiens, UniProt P11712); experiment: CYP450 drug metabolism inhibition, 2C9; format: in vitro ADME; details: criterion remaining activity >50%
Protocol: as §1

[4] = Microsomal stability (M); format: in vitro ADME, mouse; details: M of H/M; criterion >60%
Protocol: as §1

[5] = PAMPA, parallel artificial membrane permeability assay; format: in vitro ADME; details: for Papp: PAMPA, criterion >40, read-out: PAMPA (>40) Pe; for permeability resistance: conclusion from ADME evaluation
Protocol: as §1

[6] = tested on: plasma proteins; experiment: Plasma protein binding (PPB); format: in vitro ADME, Human; details: for binding with plasma proteins: conclusion from ADME evaluation
Protocol: as §1

[7] = Microsomal stability (H); format: in vitro ADME, human; details: H of H/M; criterion >60%
Protocol: as §1

[8] = tested on: monocytes isolated from mouse bone marrow treated with RANKL; experiment: Osteoclast differentiation inhibition, TRAP staining and assay; format: cell-based; details: 10 μM; RANKL; TRAP staining, Image J
Protocol: Macrophages were isolated from bone marrow of 8-week old C57BL/6J mice, and seeded on a 96-well plate in an amount of 1×10^4 cells per well, followed by treating the cells with osteoclast differentiation factors M-CSF and RANKL at 30 ng/ml and 50 ng/ml, respectively. At the same time, the compounds were used for treatment, followed by culturing the cells for 3 to 4 days. Thereafter, differentiation influence was evaluated through TRAP staining and cell counting. Specific experimental procedures and results are as follows.
The bone marrow of a 10-week-old female mouse was isolated from the hip bone, femur and tibia, and incubated in α-MEM medium (Gibco, 12561-056, 10% fetal bovine serum, 1% penicillin/streptomycin) containing macrophage colony stimulating factor (M-CSF, PeproTech, 315-02, 30 ng/ml) for […] so as to isolate only monocytes. The isolated monocytes were treated with receptor activator of nuclear factor kappa B ligand (RANKL, PeproTech, 315-11, 50 ng/ml) to induce osteoclast differentiation. When a morphology of fused multinuclear cells began to appear from day 3 after treatment with RANKL, the cells were differentiated into giant multinuclear cells for 4 to 6 days (see FIG. 1), and dead by cell apoptosis after 6 days.
During RANKL treatment, each PMSA compound was also used for treatment, followed by culturing the cells for 3 or 5 days to confirm the effects of inhibiting osteoclast differentiation.
1×10^4 monocytes isolated from mouse bone marrow were put into a 96-well plate and treated with RANKL and PMSA together to confirm the effect of each PMSA on osteoclast differentiation ability. Each PMSA was used for treatment by concentration. The activity of tartrate-resistant acid phosphatase (TRAP), which has increased expression during osteoclast differentiation, was confirmed using a TRAP activity assay kit (Cosmo Bio, PMC-AK04F-COS) (see FIG. 2).
Further, after staining, the multinuclear cells formed during osteoclast differentiation were observed under a microscope, and each well was photographed and a differentiation area ratio per total area was determined using Image J software. […] Specifically, at 10 μM concentration, cells were differentiated into osteoclasts by 30% when using #25 (PMSA-3-Ac), similarly, 74% using #25-C (PMSA-Ph), 63% using #25-N (PMSA-PhN), 41% using #25-PhO (PMSA-O), and only 1% using #25-D12 (PMSA-2-OMe-5-Cl), respectively. […]

[9] = Plasma stability; format: in vitro ADME
Protocol: as §1

[10] = molecular target: CYP2C19 (Homo sapiens, UniProt P33261); experiment: CYP450 drug metabolism inhibition, 2C19; format: in vitro ADME; details: criterion remaining activity >50%
Protocol: as §1

[11] = ADME evaluation (DGMIF), overall conclusion on toxicity; format: in vitro ADME; details: conclusion from ADME evaluation
Protocol: as §1

[12] = molecular target: T1, CYP1A2 (Homo sapiens, UniProt P05177); experiment: CYP450 drug metabolism inhibition, 1A2; format: in vitro ADME; details: criterion remaining activity >50%
T1 sequence (P05177 1-516): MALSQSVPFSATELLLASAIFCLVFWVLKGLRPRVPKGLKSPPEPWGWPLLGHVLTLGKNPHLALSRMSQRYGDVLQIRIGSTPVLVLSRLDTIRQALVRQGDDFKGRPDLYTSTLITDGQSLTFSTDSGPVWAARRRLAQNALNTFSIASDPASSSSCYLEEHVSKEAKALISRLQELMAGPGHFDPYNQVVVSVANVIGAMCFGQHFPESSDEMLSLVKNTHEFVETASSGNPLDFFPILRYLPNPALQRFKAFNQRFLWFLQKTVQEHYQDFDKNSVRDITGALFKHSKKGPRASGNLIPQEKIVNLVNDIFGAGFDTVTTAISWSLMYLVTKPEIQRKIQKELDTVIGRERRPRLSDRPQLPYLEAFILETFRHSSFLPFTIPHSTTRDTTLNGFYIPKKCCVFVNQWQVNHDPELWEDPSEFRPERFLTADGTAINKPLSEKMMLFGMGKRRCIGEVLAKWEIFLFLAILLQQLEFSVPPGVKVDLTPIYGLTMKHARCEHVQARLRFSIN
Protocol: as §1

[13] = molecular target: CYP2D6 (Homo sapiens, UniProt P10635); experiment: CYP450 drug metabolism inhibition, 2D6; format: in vitro ADME; details: criterion remaining activity >50%
Protocol: as §1

Sequence of CYP2C19 (P33261 whole entry): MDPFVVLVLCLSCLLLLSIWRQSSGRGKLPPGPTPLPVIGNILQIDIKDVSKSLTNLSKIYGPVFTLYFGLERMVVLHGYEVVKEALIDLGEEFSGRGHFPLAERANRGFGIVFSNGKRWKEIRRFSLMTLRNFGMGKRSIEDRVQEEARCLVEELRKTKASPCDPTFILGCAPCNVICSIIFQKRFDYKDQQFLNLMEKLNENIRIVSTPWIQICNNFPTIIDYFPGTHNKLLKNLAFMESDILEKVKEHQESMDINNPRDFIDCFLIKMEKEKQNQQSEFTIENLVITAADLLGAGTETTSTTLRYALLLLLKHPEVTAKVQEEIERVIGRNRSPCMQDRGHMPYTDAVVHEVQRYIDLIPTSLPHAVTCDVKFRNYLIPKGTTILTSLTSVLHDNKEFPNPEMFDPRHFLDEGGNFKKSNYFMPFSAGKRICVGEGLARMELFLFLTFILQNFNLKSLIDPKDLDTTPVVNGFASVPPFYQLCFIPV
Sequence of CYP2C9 (P11712 whole entry): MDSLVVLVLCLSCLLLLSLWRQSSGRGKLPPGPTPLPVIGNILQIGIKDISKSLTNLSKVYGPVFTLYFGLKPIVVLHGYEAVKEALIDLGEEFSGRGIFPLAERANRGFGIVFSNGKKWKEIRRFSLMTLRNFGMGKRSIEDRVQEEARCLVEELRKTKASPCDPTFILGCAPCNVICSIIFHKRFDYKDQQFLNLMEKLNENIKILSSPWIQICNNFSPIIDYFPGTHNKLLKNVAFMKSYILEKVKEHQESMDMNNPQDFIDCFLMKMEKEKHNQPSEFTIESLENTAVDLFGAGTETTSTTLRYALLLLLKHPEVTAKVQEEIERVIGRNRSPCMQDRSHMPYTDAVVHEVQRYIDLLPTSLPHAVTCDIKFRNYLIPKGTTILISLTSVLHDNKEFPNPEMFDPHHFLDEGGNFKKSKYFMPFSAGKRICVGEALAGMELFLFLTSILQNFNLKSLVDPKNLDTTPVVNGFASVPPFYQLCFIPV
Sequence of CYP2D6 (P10635 whole entry): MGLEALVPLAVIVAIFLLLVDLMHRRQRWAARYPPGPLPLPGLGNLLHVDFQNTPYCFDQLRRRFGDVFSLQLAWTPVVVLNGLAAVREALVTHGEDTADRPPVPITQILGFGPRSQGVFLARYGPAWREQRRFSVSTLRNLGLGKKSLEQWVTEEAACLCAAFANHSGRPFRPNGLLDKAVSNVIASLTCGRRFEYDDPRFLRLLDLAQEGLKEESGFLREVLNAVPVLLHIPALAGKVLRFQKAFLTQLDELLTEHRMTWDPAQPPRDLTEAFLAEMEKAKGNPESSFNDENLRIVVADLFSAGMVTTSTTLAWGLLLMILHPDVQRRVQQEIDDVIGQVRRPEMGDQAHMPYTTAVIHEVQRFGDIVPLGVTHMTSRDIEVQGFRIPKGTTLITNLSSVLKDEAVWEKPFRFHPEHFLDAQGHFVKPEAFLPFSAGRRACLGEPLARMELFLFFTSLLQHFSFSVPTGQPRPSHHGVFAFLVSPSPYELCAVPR
Sequence of CYP3A4 (P08684 whole entry): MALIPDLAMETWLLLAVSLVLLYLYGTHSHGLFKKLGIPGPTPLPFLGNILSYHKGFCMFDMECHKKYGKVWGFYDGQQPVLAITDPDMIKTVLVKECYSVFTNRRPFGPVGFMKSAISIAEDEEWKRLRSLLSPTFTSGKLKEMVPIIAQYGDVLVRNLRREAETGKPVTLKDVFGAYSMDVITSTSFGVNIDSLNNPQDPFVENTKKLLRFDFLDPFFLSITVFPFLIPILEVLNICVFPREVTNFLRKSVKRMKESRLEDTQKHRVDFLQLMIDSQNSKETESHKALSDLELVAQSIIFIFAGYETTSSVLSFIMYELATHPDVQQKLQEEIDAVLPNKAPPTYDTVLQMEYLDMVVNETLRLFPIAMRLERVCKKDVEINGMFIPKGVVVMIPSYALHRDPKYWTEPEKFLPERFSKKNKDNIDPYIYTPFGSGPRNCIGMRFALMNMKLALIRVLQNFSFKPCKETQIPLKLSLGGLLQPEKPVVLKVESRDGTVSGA

Row | SMILES | decrease in bone resorption ability ([1]; compared to differentiated osteoclasts (Ctrl) not treated, fluorescence absorbance) [%] | CYP 3A4 remaining activity [2] [%] | CYP 2C9 remaining activity [3] [%] | Microsomal stability (>60%) M [4] [%] | Papp [5] [×10⁻⁶ cm/s] | permeability resistance [5] | PPB Human (%, bound) [6] | binding with plasma proteins [6] | Microsomal stability (>60%) H [7] [%] | cells differentiated into osteoclasts (differentiation area ratio per total area) [8] [%] | Plasma S Human 30 min (% Remaining) [9] | Plasma S Human 120 min (% Remaining) [9] | CYP 2C19 remaining activity [10] [%] | toxicity [11] | CYP 1A2 remaining activity [12] [%] | CYP 2D6 remaining activity [13] [%] | bone resorption ability [1]
1 | CC(=O)c1cccc(N(CC(=O)Nc2ccccc2-c2ccccc2)S(C)(=O)=O)c1 [#25-C, N-([1,1′-biphenyl]-2-yl)-2-(N-(3-acetylphenyl)methylsulfonamido)acetamide] | 13.4 | 72 | 67.2 | 3.7 | 76.6 | excellent | 97.9 %, bound | good | 50.6 | 74 | 100/100 % Remaining | 100/100 % Remaining | 6.9 | low toxicity | 96.8 | 18.3 | –
2 | CC(=O)c1cccc(N(CC(=O)Nc2ccccc2Nc2ccccc2)S(C)(=O)=O)c1 [#25-N, 2-(N-(3-acetylphenyl)methylsulfonamido)-N-(2-(phenylamino)phenyl)acetamide] | – | 43.1 | 47 | 4.0 | 47.2 | excellent | 97.9 %, bound | good | 3.3 | 63 | 100/100 % Remaining | 100/100 % Remaining | 9 | low toxicity | 81.6 | 12.6 | slightly decreased
3 | CC(=O)c1cccc(N(CC(=O)Nc2ccccc2Oc2ccccc2)S(C)(=O)=O)c1 [#25-O, 2-(N-(3-acetylphenyl)methylsulfonamido)-N-(2-phenoxyphenyl)acetamide] | – | 70.1 | 49.7 | 3.1 | 66.2 | excellent | 98.4 %, bound | good | 12.5 | 41 | 94.3 % Remaining | 96.4 % Remaining | 10.4 | low toxicity | 100 | 53.1 | slightly decreased
